Reference: patent US20090298813A1, “USE OF NEUROPROTECTIVE COMPOUNDS IN OBTAINING MEDICAMENTS INTENDED FOR THE TREATMENT OF NEURODEGENERATING DISEASES” (LES LABORATOIRES SERVIER, priority 2007, published 2009)

Columns and labels:
[1] = system: glial cells; experiment: Protection from apoptosis caused in vitro in cultures of glial cells (OGD followed by reperfusion); format: cell-based, Sprague Dawley rats; settings: 10 μM throughout OGD (3 h) and reperfusion (18 h); relative to control cultures subjected to OGD and reperfusion
Description: A study was carried out to determine if the compounds of the invention protect cultures of glial cells from the apoptosis brought about by oxygen and glucose deprivation (OGD) followed by reperfusion.
Glial cells are isolated from the brains of newborn Sprague Dawley rats and cultured. They are subjected to OGD for 3 hours by being placed in a glucose-free medium under anaerobic conditions in an incubator (5% CO2, 95% N2).
Reperfusion is carried out by returning the cultures for 18 hours to the normal medium [Dulbecco's modified Eagle […] (DMEM)], to which 10% fetal calf serum, 2 mM glutamine and 50 μg/ml of gentamicin have been added.
At the end of the OGD period, the adenosine triphosphate (ATP) content of the cultures is measured in order to assess the degree of ischaemia, using the BIOLUMINESCENT kit (luciferase luminescence).
The degree of apoptosis is quantified by counting the astrocyte nuclei labelled with the DNA-specific HOECHST 33258 fluorescent dye.
The compounds of the invention are added to the medium at a concentration of 10 μM throughout the OGD and reperfusion period.
The results are expressed as the percentage reduction in cell death relative to control cultures subjected to ischaemia by means of OGD and reperfusion.

[2] = system: mixed (neurons and glia) primary embryonic mesencephalic cultures; experiment: Neuroprotective and neurotrophic effects in an in vitro model of neurodegeneration (epoxomicin); settings: for increase in neuronal survival with respect to their control (neuroprotective): at 100 μM, in the presence of epoxomicin (50 nM), 48 hours
[3] = system: newborn mice; experiment: Protection from neurodegeneration caused by ibotenate in newborn mice; format: in vivo, mouse; settings: 20 mg/kg i.p.; for Reduction in the size of lesions relative to the controls, cortex / Reduction in the size of lesions relative to the controls, white matter: simultaneous injection at 0 h
Description: Ibotenate, an agonist of N-methyl-D-aspartate (NMDA) receptors, when administered by the intracerebral route to the newborn mouse, brings about lesions of excitotoxic origin in the neocortex and the underlying white matter.
The ibotenate injection is performed in newborn mice aged 5 days (P5). The compounds of the invention are administered by the i.p. route at a dose of 20 mg/kg [either simultaneously] (P5), [or 8, 24 or 48 hours after induction of the lesions]. […] Cell markers were applied to the brain slices of animals sacrificed at various times after administration of ibotenate and the compound of the invention: (1) cleaved caspase-3, an apoptosis marker; (2) isolectin, a microglial activation marker; (3) glial fibrillary acidic protein (GFAP), a marker of astrogliosis.

[4] = system: mouse striatum; experiment: Glial reaction in a 6-OHDA model of Parkinson's disease in the mouse; format: in vivo; settings: for microglial reactivity: single i.p. injection of 20 mg/kg
Description: Unilateral injection of 6-OHDA into the mouse striatum using a micro-syringe (0.5 μl of a solution containing 8 μg/μl) causes, from the 3rd day, degeneration of the TH-positive neurons of the striatum, which is accompanied, from the 7th day, by neuronal loss also in the substantia nigra, in accordance with that which is observed. in Parkinson's disease in humans.
The compounds of the invention are administered by the intraperitoneal route in a single injection of 20 mg/kg 10 minutes after the intracerebral injection of 6-OHDA. One group of mice is sacrificed at 3 days, the other at 7 days.

[5] = system: dopaminergic neurons of primary rat mesencephalic cultures; experiment: Neuroprotective effects and stimulation of the catecholaminergic phenotype in vitro (spontaneous death of dopaminergic neurons); format: cell-based
Description: The study is carried out in an in vitro model of primary rat mesencephalic cultures, wherein death of the dopaminergic neurons develops spontaneously and selectively when the cells mature. The culture conditions have been defined in detail in various publications (Douhou et al., J. of Neurochemistry, (2001), 78, 163-174). The culture media are changed daily and, under these conditions, the dopaminergic neurons, but not the other neurons such as GABA-ergic neurons, degenerate spontaneously. Natural trophic factors of the body such as GDNF (glial cell derived neurotrophic factor) have shown a protective effect on the dopaminergic neurons in this model.
The effects of Examples 1 and 12 were tested at 3 concentrations. The effect is analysed by measuring the rate of tritiated dopamine uptake and the number of surviving neurons by labelling the tyrosine hydroxylase with a fluorescent antibody.

[6] = epoxomicin 50 nM, after 48 hours

Compound	Reduction in cell death, % reduction [1] [%]	Reduction in the size of lesions relative to the controls, cortex ([3]; sacrifice at 120 h) [%]	Reduction in the size of lesions relative to the controls, white matter ([3]; sacrifice at 120 h) [%]	also measured
O=C1NN2c3ccccc3C[C@H]2[C@@H]2NCCC[C@H]12 (racemic) [Example 6, (4aSR,11aSR,11bRS)-1,2,3,4,4a,11,11a,11b-Octahydro-1,6,6a-triaza-benzo[a]fluoren-5-one]	22	–	–	–
C=CCN1CCC[C@@H]2C(=O)N3c4ccccc4C[C@@H]3[C@H]21 (racemic) [Example 11, (4aSR,11aRS,11bSR)-1-Allyl-1,2,3,4,4a,11,11a,11b-octahydropyrido[2′,3′:3,4]pyrrolo-[1,2-a]indol-5-one]	44	–	–	–
O=C1NC(=O)N2c3ccccc3[C@@H]3CCN4CCC[C@@H]1[C@@H]4[C@@H]32 (single isomer, unassigned) [Example 7, (5aS,12aR,12bR,12cR)- or (5aR,12aS,12bS,12cS)-2,3,5a,12a,12b,12c-Hexahydro-1H,4H-3a,9b,11-triazabenzo[a]naphtho[2,1,8-cde]azulene-10,12(5H,11H)-dione (enantiomer α)]	35	–	–	–
O=C1NC(=O)N2c3ccccc3C3CCN4CCCC1C4C32 (single isomer, unassigned) [Example 8, (5aS,12aR,12bR,12cR)- or (5aR,12aS,12bS,12cS)-2,3,5a,12a,12b,12c-Hexahydro-1H,4H-3a,9b,11-triazabenzo[a]naphtho[2,1,8-cde]azulene-10,12(5H,11H)-dione (enantiomer ,β)]	–	–	–	increase in neuronal survival with respect to their control (neuroprotective) [2]: ~75%
CN1CCN(CCN2CCC=C(C(=O)Nn3ccc4cc(Cl)ccc43)C2)CC1 [Example 3, N-(5-Chloroindol-1-yl)-1-[2-(4-methylpiperazin-1-yl)ethyl]-1,2,5,6-tetrahydropyridine-3-carboxamide]	–	50	56	Reduction in the intensity of markers relative to the controls, Cleaved caspase-3 (apoptosis) ([3]; sacrifice at 24 h): 56%; Reduction in the intensity of markers relative to the controls, Isolectin (microglial activation) ([3]; sacrifice at 24 h): 50%; Reduction in the intensity of markers relative to the controls, GFAP (astrogliosis) ([3]; sacrifice at 120 h): 44%; Reduction in the size of lesions relative to the controls, cortex ([3]; sacrifice at 24 h): 53%; Reduction in the size of lesions relative to the controls, white matter ([3]; sacrifice at 24 h): 70%; reduction of the area occupied by the astrocytes (GFAP) in the striatum ([4]; single i.p. injection of 20 mg/kg 10 minutes after 6-OHDA, assessed at 7 days, relative to control group (6-OHDA and solvent)): 28%; microglial reactivity ([4]; at 3 days): remains increased; microglial reactivity ([4]; at 7 days): reduced
CCOC(=O)C1=CCCN(CCN2CCC=C(C(=O)Nn3ccc4ccccc43)C2)C1 [Example 4, N-(Indol-1-yl)-1-[2-[3-(ethoxycarbonyl)-1,2,5,6-tetrahydropyridin-1-yl]ethyl]-1,2,5,6-tetrahydropyridine-3-carboxamide]	60	–	–	–
CN1CCN(CCN2CCC=C(C(=O)Nn3ccc4ccccc43)C2)CC1 [Example 9, N-(Indol-1-yl)-1-[2-(4-methylpiperazin-1-yl)ethyl]-1,2,5,6-tetrahydropyridine-3-carboxamide]	44	50	56	EC50 ([2]; Rattus norvegicus, Neuron, 48 h, read-out: EC50 (neurotrophic)): 10.5 µM
O=C(Nn1ccc2ccccc21)C1=CCCN(CCN2CCCCC2)C1 [Example 10, N-(Indol-1-yl)-1-(2-piperidin-1-yl-ethyl)-1,2,5,6-tetrahydropyridine-3-carboxamide]	60	–	–	–
O=C(Nc1cccnc1)Nn1ccc2ccccc21 [Example 12, N-(1H-Indol-1-yl)-N′-(3-pyridyl)urea]	59	64	58	cell survival (number of surviving neurons, tyrosine hydroxylase labelling) [5]: significantly increase; rate of tritiated dopamine uptake [5]: significantly increase
O=C(Nc1cccnc1)NN1CCc2ccccc21 [Example 13, N-(2,3-Dihydro-1H-indol-1-yl)-N′-(3-pyridyl)urea]	–	28	11	increase in neuronal survival with respect to their control (neuroprotective) [2]: ~145%
CC[C@H](C)[C@H](NC(=O)[C@H]([C@@H](C)CC)N(C)C(C)=O)C(=O)N[C@H](C(=O)N[C@@H](CC(C)C)C(=O)[C@@]1(C)CO1)[C@@H](C)O [epoxomicin, reference compound]	–	–	–	loss over all of the cell population relative to the cells not treated with epoxomicin [2, 6]: less than 70%; neuronal loss relative to the untreated cells [2, 6]: 82%
